Test results published in patent publication US20070254324A1, “Method for determination of platelet function under flow conditions” (DADE BEHRING MARBURG GmbH, priority 2006, published 2007).

What was measured:
Type in all cases: cell-based, human
[1] = system: platelet function in whole blood; assay: Closure time under flow conditions, PFA-100 Col/ADP test cartridge; settings: for Number of samples with closure times above the cut-off (n = 11): cut-off 115 seconds, ASA 30 μmol/L
Description: (§1) Venous blood was taken from 11 healthy donors and anticoagulated with sodium citrate (3.2% buffered Na citrate).
(§2) Aliquots of the citrated whole blood sample were treated in vitro with the P2Y(12) antagonist MRS 2395 (Sigma-Aldrich Chemie GmbH, Steinheim, Germany). For this purpose an ethanolic MRS 2395 stock solution (15 mg/mL) was mixed with the whole blood samples so that an end concentration of 100 μmol/L was obtained.
(§3) Further aliquots of the citrated whole blood samples were treated in vitro with the COX-1 inhibitor acetylsalicylic acid (abbr.: ASA; Sigma-Aldrich Chemie GmbH, Steinheim, Germany). For this purpose an aqueous ASA stock solution (1 mg/mL) was mixed with whole blood samples so that an end concentration of 30 μmol/L was obtained.
(§4) After addition of the reagents the blood samples were incubated at room temperature for 5 minutes.
(§5) Venous blood was taken from healthy donors and anticoagulated with sodium citrate (3.2% buffered Na citrate). The closure time determination was carried out for each whole blood sample in the PFA-100® apparatus. Samples from 186 donors were determined in duplicate with a Col/Epi PFA-100® test cartridge [see Example 1d)] and a Col/ADP PFA-100® test cartridge [see Example 1d)].
(§6) The reference ranges (normal range) for the Col/Epi closure time and the Col/ADP closure time were established in that the measurement value ranges determined in which 90% of the measurement values for the healthy subjects were found (90% central interval of the normal distribution of all measurements). This gave the following reference ranges for the closure times:
(§7) The upper reference limit of the reference range was defined as cut-off, i.e. as threshold value, for a platelet dysfunction. If the closure time of a patient sample deviates from the reference range it can indicate a platelet dysfunction. This means Col/Epi closure times that are greater than 158 seconds and Col/ADP closure times that are greater than 115 seconds indicate the presence of a platelet dysfunction within the sense of a reduced aggregation efficiency.
(§8) To determine the closure time using a Col/Epi PFA-100® test cartridge (2 μg of collagen and 10 μg of epinephrine on the partition member; 150 μm aperture diameter; Dade Behring Marburg GmbH, Marburg, Germany) and using a Col/ADP PFA-100® test cartridge (2 μg of collagen and 50 μg of ADP on the partition member; 150 μm aperture diameter; Dade Behring Marburg GmbH, Marburg, Germany) as measure of platelet function, whole blood samples described in Example 1a) were investigated in a PFA-100® apparatus (Platelet Function Analyzer-100, Dade Behring Marburg GmbH, Marburg, Germany).
(§9) Aliquots of the samples described in 1a) were taken and mixed according to the invention either with prostaglandin E1 (abbr.: PGE1) or with forskolin (both purchased from Sigma-Aldrich Chemie GmbH, Steinheim, Germany) for activating intracellular adenylate cyclases. For this purpose, the samples were mixed with an ethanolic PGE1 stock solution (0.05 mg/mL) or with an ethanolic forskolin stock solution (5 mg/mL) to reach a final concentration of 12.5 nM PGE1 or a final concentration of 1 μM forskolin. Further aliquots of the samples described in 1a) were not mixed with an activator of intracellular adenylate cyclases and served as control.
(§10) Then in each case 800 μl of the blood samples mixed with PGE1 or forskolin, or of the control samples were put into the reservoir of a Col/Epi or Col/ADP test cartridge (+37° C.) and incubated in the apparatus at +37° C. for 3 minutes. A partial vacuum of −40 mbar was generated by the apparatus, thus sucking the blood out of the reservoir through the capillary (diameter 200 μm) and finally through the opening (aperture) of the partition member into the measurement chamber. The closure time was determined as the time required until the aperture was closed by formation of a blood clot. […]

[2] = system: platelet function in whole blood; assay: Closure time under flow conditions, PFA-100 Col/Epi test cartridge; settings: for Number of samples with closure times above the cut-off (n = 11): cut-off 158 seconds, ASA 30 μmol/L
Description: as §1, §2, §3, §4, §5, §6, §7, §8, §9, §10

[3] = system: platelet aggregation in platelet rich plasma; assay: ADP induced light transmission aggregometry (according to Born); settings: 100 μmol/L MRS 2395 in vitro; PRP; 5 μM ADP
Description: as §1, §2, §4
In order to check whether the samples treated with MRS 2395 actually show a reduced platelet aggregation, platelet rich (PRP) and platelet poor (PPP) plasma was prepared from aliquots of the untreated and MRS 2395-treated whole blood samples described under Example 1a). Then the samples were treated with 5 μM ADP. The PPP samples were used as blank controls. The photometric measurement of the aggregation reaction was carried out in the automated coagulation apparatus BCT® (Dade Behring Marburg GmbH, Marburg, Germany) under continuous stirring (600 rpm). The platelet aggregation of the samples treated with MRS 2395 was reduced by a mean of 27% compared with the platelet aggregation of the untreated samples.

[4] = +1 μM forskolin, MRS 2395 100 μmol/L
[5] = Control (no activator), MRS 2395 100 μmol/L
[6] = normal untreated whole blood, 12.5 nM PGE1 or 1 μM forskolin
[7] = +12.5 nM PGE1, MRS 2395 100 μmol/L
[8] = +1 μM forskolin, MRS 2395 100 μmol/L, listed as ASA

CNc1nc(Cl)nc2c1ncn2CC(COC(=O)C(C)(C)C)COC(=O)C(C)(C)C [MRS 2395, 2,2-dimethyl-propionic acid 3-(2-chloro-6-methylaminopurin-9-yl)-2-(2,2-dimethyl-propionyloxymethyl)-propyl ester]
Number of samples with closure times above the cut-off (n = 11) [1, 4]: 10
Number of samples with closure times above the cut-off (n = 11) [1, 5]: 2
Number of samples with closure times above the cut-off (n = 11) [2, 4]: 9
Number of samples with closure times above the cut-off (n = 11) [2, 5]: 3
platelet aggregation reduced compared with the untreated samples (mean) [3]: 27%

CCCCC[C@H](O)/C=C/[C@H]1[C@H](O)CC(=O)[C@@H]1CCCCCCC(=O)O [prostaglandin E1]
prolongation of the closure times of the controls [1, 6]: Neither the amount of forskolin used nor the amount of prostaglandin E1 used led to a significant prolongation
prolongation of the closure times of the controls [2, 6]: significant prolongation

CC(=O)Oc1ccccc1C(=O)O [Acetylsalicylic acid, acetylsalicylic acid]
Number of samples with closure times above the cut-off (n = 11) [1, 7]: 4
Number of samples with closure times above the cut-off (n = 11) [1, 4]: 0
Number of samples with closure times above the cut-off (n = 11) [1, 8]: none
Number of samples with closure times above the cut-off (n = 11) [1, 5]: 1
Number of samples with closure times above the cut-off (n = 11) [2, 7]: 11
Number of samples with closure times above the cut-off (n = 11) ([2]; +12.5 nM PGE1, MRS 2395 100 μmol/L, listed as ASA): all
Number of samples with closure times above the cut-off (n = 11) [2, 4]: 11
Number of samples with closure times above the cut-off (n = 11) [2, 8]: all
Number of samples with closure times above the cut-off (n = 11) [2, 5]: 8
